Measured values reported in patent EP4685142A1, “TRIAZINE COMPOUND AND USE THEREOF” (Chengdu Zenitar Biomedical Technology Co., Ltd., priority 2023, dated 2024).
Like-named read-outs stand apart in the source and are kept apart here.

Molecular target: T1, NLRP3 inflammasome (Homo sapiens, UniProt Q96P20)
T1 construct: host or cells: THP-1 cells
Assay: Inhibitory activity of NLRP3 inflammasome in human monocytes (THP-1 cells, LPS + Nigericin, IL-1β ELISA)
Format: cell-based
Description: 1. Determination of inhibitory activity of NLRP3 inflammasome in human monocytes
Experimental method: THP-1 cells were cultured in RPMI culture medium containing PMA (10 µM), and then inoculated in 48-well plates at a density of 2×10^5 cells/mL, the plates were incubated overnight in a 5% CO2 incubator at 37°C. The next day, the above culture medium was replaced with Opti-MEM culture medium containing 1 µg/mL LPS. After 3 hours, the grown cells were simulated for 40 min with a drug, and then simulated for 40 min with Nigericin (10 µM), and a cell supernatant was harvested for ELISA analysis.
Table 2 Inhibitory activity of NLRP3 inflammasome

[1] = THP-1 cells, PMA, LPS 1 µg/mL 3 h, drug 40 min, Nigericin 10 µM 40 min, IL-1β ELISA, read-out: IC50

T1 sequence (Q96P20 whole entry): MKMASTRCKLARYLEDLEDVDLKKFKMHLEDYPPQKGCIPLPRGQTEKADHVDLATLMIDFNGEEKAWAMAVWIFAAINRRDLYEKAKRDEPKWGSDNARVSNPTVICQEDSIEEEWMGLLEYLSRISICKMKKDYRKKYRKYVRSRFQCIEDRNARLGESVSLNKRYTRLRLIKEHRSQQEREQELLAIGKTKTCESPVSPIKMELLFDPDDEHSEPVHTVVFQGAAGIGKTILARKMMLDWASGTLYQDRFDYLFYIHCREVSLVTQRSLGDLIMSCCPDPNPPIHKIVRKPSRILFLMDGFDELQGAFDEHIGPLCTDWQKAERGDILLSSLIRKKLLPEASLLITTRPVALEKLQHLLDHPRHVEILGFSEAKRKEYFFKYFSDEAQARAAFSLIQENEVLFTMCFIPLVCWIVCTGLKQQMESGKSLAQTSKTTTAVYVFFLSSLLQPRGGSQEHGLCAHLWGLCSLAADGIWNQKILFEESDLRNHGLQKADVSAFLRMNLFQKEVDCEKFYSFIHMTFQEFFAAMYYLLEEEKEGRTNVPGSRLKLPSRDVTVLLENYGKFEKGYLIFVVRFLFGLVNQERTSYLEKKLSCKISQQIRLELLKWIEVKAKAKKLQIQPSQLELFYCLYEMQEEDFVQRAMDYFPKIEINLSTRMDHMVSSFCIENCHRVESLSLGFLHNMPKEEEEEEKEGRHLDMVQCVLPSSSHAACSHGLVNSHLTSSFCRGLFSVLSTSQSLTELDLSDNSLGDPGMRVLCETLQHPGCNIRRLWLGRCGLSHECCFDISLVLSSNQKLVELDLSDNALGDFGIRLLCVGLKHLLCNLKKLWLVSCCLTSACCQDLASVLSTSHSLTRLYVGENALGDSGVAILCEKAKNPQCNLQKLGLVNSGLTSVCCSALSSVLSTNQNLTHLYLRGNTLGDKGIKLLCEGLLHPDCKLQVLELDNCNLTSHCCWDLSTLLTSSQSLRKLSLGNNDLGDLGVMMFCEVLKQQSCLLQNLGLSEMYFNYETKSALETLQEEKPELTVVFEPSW

Row | Compound | IC50 (read-out: IC50) | also measured
1 | O=c1c(N[C@@H]2CCCN(CCO)C2)nnc(-c2ccc3sccc3c2O)n1C1CC1 [Compound 23, (R)-4-cyclopropyl-3-(4-hydroxybenzo[b]thiophen-5-yl)-6-((1-(2-hydroxyethyl)piperidin-3-yl)amino)-1,2,4-triazin-5(4H)-ketone] | 8.95 nM | –
2 | Cn1c(-c2ccc3c(c2O)CCC3=C(F)F)nnc(N[C@@H]2CCCN(CCO)C2)c1=O [Compound 1, (R)-3-(1-(difluoromethylene)-4-hydroxy-2,3-dihydro-1H-inden-5-yl)-6-((1-(2-hydroxyethyl)piperidin-3-yl)amino)-4-methyl-1,2,4-triazin-5(4H)-ketone] | 4.24 nM | –
3 | C#Cc1ccc(-c2nnc(N[C@@H]3CCCN(CC)C3)c(=O)n2C)c(O)c1 [Compound 25, (R)-6-((1-ethylpiperidin-3-yl)amino)-3-(4-ethynyl-2-hydroxyphenyl)-4-methyl-1,2,4-triazin-5 (4H)-ketone] | – | IC50 [1]: 6.7 nM
4 | [2H]C([2H])([2H])C([2H])([2H])N1CCC[C@@H](Nc2nnc(-c3ccc4c(c3O)CCC4=C(F)F)n(C)c2=O)C1 [Compound 15, (R)-3-(1-(difluoromethylene)-4-hydroxy-2,3-dihydro-1H-inden-5-yl)-6-((1-(ethyl-d5)piperidin-3-yl)amino)-4-methyl-1,2,4-triazin-5(4H)-ketone] | 1.45 nM | –
5 | C[C@@H]1[C@H](Nc2nnc(-c3ccc4sccc4c3O)n(C)c2=O)CCCN1C [Compound 49, 6-(((2R,3R)-1,2-dimethylpiperidin-3-yl)amino)-3-(4-hydroxybenzo[b]thiophen-5-yl)-4-methy 1-1,2,4-triazin-5(4H)-ketone] | 8.12 nM | –
6 | CCN1CCC[C@@H](Nc2nnc(-c3ccc4sccc4c3O)n(C3CC3)c2=O)C1 [Compound 22, (R)-4-cyclopropyl-6-((1-ethylpiperidin-3-yl)amino)-3-(4-hydroxybenzo[b]thiophen-5-yl)-1,2,4-triazin-5(4H)-ketone] | 2.57 nM | –
7 | Cn1c(-c2ccc3ccccc3c2O)nnc(N[C@@H]2CCCN(CCO)C2)c1=O [Compound 20, (R)-6-((1-(2-hydroxyethyl)piperidin-3-yl)amino]-3-(1-hydroxynaphthalen-2-yl)-4-methyl-1,2,4-triazin-5(4H)-ketone] | 35.1 nM | –
8 | CN1CCC[C@@H](Nc2nnc(-c3ccc(C4CC4)cc3O)n(C)c2=O)C1 [Compound 39, (R)-3-(4-cyclopropyl-2-hydroxyphenyl)-4-methyl-6-((1-methylpiperidin-3-yl)amino)-1,2,4-tri azin-5(4H)-ketone] | 30 nM | –
9 | CN1CCC[C@@H](Nc2nnc(-c3ccc4sccc4c3O)n(C3CC3)c2=O)C1 [Compound 21, (R)-4-cyclopropyl-3-(4-hydroxybenzo[b]thiophen-5-yl)-6-((1-methylpiperidin-3-yl)amino)-1,2,4-triazin-5(4H)-ketone] | 3.51 nM | –
10 | C#Cc1ccc(-c2nnc(N[C@@H]3CCCC[C@H]3O)c(=O)n2C)c(O)c1 [Compound 31, 3-(4-ethynyl-2-hydroxyphenyl)-6-(((1R,2R)-2-hydroxycyclohexyl)amino)-4-methyl-1,2,4-tria zin-5(4H)-ketone] | 3.64 nM | –
11 | Cn1c(-c2ccc3c(c2O)CCC3=C(F)F)nnc(N[C@@H]2CCCN(C3CC(F)(F)C3)C2)c1=O [Compound 14, (R)-6-((1-(3,3-Difluorocyclobutyl)piperidin-3-yl)amino)-3-(1-(difluoromethylene)-4-hydroxy-2,3-dihydro-1H-inden-5-yl)-4-methyl-1,2,4-triazin-5(4H)-ketone] | 32 nM | –
12 | CN1CCC[C@@H](Nc2nnc(-c3ccc(C#CC4CC4)cc3O)n(C)c2=O)C1 [Compound 44, (R)-3-(4-(cyclopropylethynyl)-2-hydroxyphenyl)-4-methyl-6-((1-methylpiperidin-3-yl)amino) -1,2,4-triazin-5(4H)-ketone] | 80 nM | –
13 | CC#Cc1ccc(-c2nnc(N[C@@H]3CCCC[C@H]3O)c(=O)n2C)c(O)c1 [Compound 32, 3-(2-hydroxy-4-(prop-1-yn-1-yl)phenyl)-6-(((1R,2R)-2-hydroxycyclohexyl)amino)-4-methyl-1,2,4-triazin-5(4H)-ketone.] | 8.53 nM | –
14 | CN1CCO[C@H](CNc2nnc(-c3ccc4sccc4c3O)n(C)c2=O)C1 [Compound 34, (R)-3-(4-hydroxybenzo[b]thiophen-5-yl)-4-methyl-6-(((4-methylmorpholino-2-yl)methyl)amino)-1,2,4-triazine-5(4H)-ketone] | 75 nM | –
15 | CN1CCC[C@@H](Nc2nnc(-c3ccc4sccc4c3OC(F)F)n(C)c2=O)C1 [Compound 38, (R)-3-(4-(difluoromethoxy)benzo[b]thiophen-5-yl)-4-methyl-6-((1-methylpiperidin-3-yl)amino)-1,2,4-triazin-5(4H)-ketone] | 257 nM | –
16 | CCN1CCC[C@@H](Nc2nnc(-c3ccc4ccccc4c3O)n(C)c2=O)C1 [Compound 19, (R)-6-((1-ethylpiperidin-3-yl)amino)-3-(1-hydroxynaphthalen-2-yl)-4-methyl-1,2,4-triazin-5(4H)-ketone] | 19.1 nM | –

Row | Compound | IC50 (read-out: IC50) | also measured
17 | CC#Cc1ccc(-c2nnc(N[C@@H]3CCCN(CC)C3)c(=O)n2C)c(O)c1 [Compound 28, (R)-6-((1-ethylpiperidin-3-yl)Jamino)-3-(2-hydroxy-4-(prop-1-yn-1-yl)phenyl)-4-methyl-1,2,4-triazin-5(4H)-ketone] | 29.6 nM | –
18 | CN1C[C@H](Nc2nnc(-c3ccc4sccc4c3O)n(C)c2=O)CC(F)(F)C1 [Compound 37, (R)-6-((5,5-difluoro-1-methylpiperidin-3-yl)amino)-3-(4-hydroxybenzb[b]thiophen-5-yl)-4-m ethyl-1,2,4-triazin-5(4H)-ketone] | 15.1 nM | –
19 | [2H]C([2H])([2H])N1CCC[C@@H](Nc2nnc(-c3ccc4sccc4c3O)n(C)c2=O)C1 [Compound 10, (R)-3-(4-hydroxybenzo[b]thiophen-5-yl)-4-methyl-6-((1-(methyl-d3)piperidin-3-yl)amino)-1,2,4-triazin-5(4H)-ketone] | – | IC50 [1]: 3.9 nM
20 | CC#Cc1ccc(-c2nnc(N[C@@H]3CCCN(C)C3)c(=O)n2C)c(O)c1 [Compound 27, (R)-3-(2-hydroxy-4-(prop-1-yn-1-yl)phenyl)-4-methyl-6-((1-methylpiperidin-3-yl)amino)-1,2,4-triazin-5(4H)-ketone] | – | IC50 [1]: 14.3 nM
21 | Cn1c(-c2ccc3ccccc3c2O)nnc(N[C@@H]2CCCC[C@H]2O)c1=O [Compound 33, 6-(((1R,2R)-2-hydroxycyclohexyl)amino)-3-(1-hydroxynaphthalene-2-yl)-4-methyl-1,2,4-tria zine-5(4H)-ketone] | 12.5 nM | –
22 | CN1CCC[C@@H](Nc2nnc(-c3ccc(-c4ncccn4)cc3O)n(C)c2=O)C1 [Compound 47, (R)-3-(2-hydroxy-4-(pyrimidin-2-yl)phenyl)-4-methyl-6-((1-methylpiperidin-3-yl)amino)-1,2,4-triazin-5(4H)-ketone] | 450 nM | –
23 | [2H]C([2H])([2H])C([2H])([2H])N1CCC[C@@H](Nc2nnc(-c3ccc4ccccc4c3O)n(C)c2=O)C1 [Compound 7, (R)-6-((1-(ethyl-d5)piperidin-3-yl)amino)-3-(1-hydroxynaphthalen-2-yl)-4-methyl-1,2,4-triazi n-5(4H)-ketone] | 22.1 nM | –
24 | CC#Cc1ccc(-c2nnc(N[C@@H]3CCCN(CCO)C3)c(=O)n2C)c(O)c1 [Compound 29, (R)-6-((1-(2-hydroxyethyl)piperidin-3-yl)amino)-3-(2-hydroxy-4-(prop-1-yn-1-yl)phenyl)-4-methyl-1,2,4-triazin-5(4H)-ketone] | – | IC50 [1]: 46.5 nM
25 | CCN1CCC[C@@H](Nc2nnc(-c3ccc(C4CC4)cc3O)n(C)c2=O)C1 [Compound 11, (R)-3-(4-cyclopropyl-2-hydroxyphenyl)-6-((1-ethylpiperidin-3-yl)amino)-4-methyl-1,2,4-triaz in-5(4H)-ketone] | 6.5 nM | –
26 | CN1CCCC2CCN(c3nnc(-c4ccc5sccc5c4O)n(C)c3=O)C21 (stereo not shown) [Compound 48, 3-(4-hydroxybenzo[b]thiophen-5-yl)-4-methyl-6-(7-methyloctahydro-1H-pyrrolo[2,3-b]pyridin-1-yl)-1,2,4-triazin-5(4H)-ketone] | – | IC50 [1]: 18.5 nM
27 | CN1CCC[C@@H](Nc2nnc(-c3ccc4ccccc4c3O)n(C)c2=O)C1 [Compound 18, (R)-3-(1-hydroxy-2-naphthyl)-4-methyl-6-((1-methylpiperidin-3-yl)amino)-1,2,4-triazin-5(4H )-ketone] | 25 nM | –
28 | CCN1CCC[C@@H](Nc2nnc(-c3ccc(C#CC4CC4)cc3O)n(C)c2=O)C1 [Compound 45, (R)-3-(4-(cyclopropylethynyl)-2-hydroxyphenyl)-6-((1-ethylpiperidin-3-yl)amino)-4-methyl-1 ,2,4-triazin-5(4H)-ketone] | 345 nM | –
29 | CN1CCC[C@@H](Nc2nnc(-c3ccc(-c4ccc(F)cc4)cc3O)n(C)c2=O)C1 [Compound 46, (R)-3-(4'-fluoro-3-hydroxy-[1,1'-biphenyl]-4-yl)-4-methyl-6-((1-methylpiperidin-3-yl)amino)-1,2,4-triazin-5(4H)-ketone] | – | IC50: 25.5 nM
30 | C[C@H]1CC[C@@H](Nc2nnc(-c3ccc4sccc4c3O)n(C)c2=O)CN1C [Compound 50, 6-(((3R,6S)-1,6-dimethylpiperidin-3-yl)amino)-3-(4-hydroxybenzo[b]thiophen-5-yl)-4-methyl-1,2,4-triazin-5 (4H)-ketone] | 350 nM | –
31 | C#Cc1ccc(-c2nnc(N[C@@H]3CCCN(CCO)C3)c(=O)n2C)c(O)c1 [Compound 26, (R)-3-(4-ethynyl-2-hydroxyphenyl)-6-((1-(2-hydroxyethyl)piperidin-3-yl)amino)-4-methyl-1,2,4-triazin-5(4H)-ketone] | – | IC50 [1]: 25.1 nM
